These results are taken from patent EP0639573A1, “Benzocondensed five membered heterocycles, process of their preparation, their use as drug, as diagnostic means and pharmaceuticals containing it” (HOECHST AKTIENGESELLSCHAFT, priority 1993, dated 1995).

Where a name gives a salt, the structure may show the parent alone.

One experiment concerns Rattenherzen.
Assay: not given
The following applies: isolated rat hearts; Eur. Heart J. 9 (suppl. 1): 167 (1988); cited from earlier work.
Turning to `NC(N)=NC(=O)c1nc(Cl)c(N)nc1N` [Amilorid], the “künstlich ausgelöstes Kammerflimmern” value is on record as “völlig unterdrückt”. Regarding `CCN(c1nc(N)c(C(=O)N=C(N)N)nc1Cl)C(C)C` [Ethylisopropylamilorid], the “künstlich ausgelöstes Kammerflimmern” value is “Noch potenter als Amilorid”.

In another experiment the target is T1, Na⁺/H⁺-Exchanger (Oryctolagus cuniculus, UniProt P23791).
T1 construct: den Na⁺-Influx in die Erythrocyten via Na⁺/H⁺-Austausch flammenphotometrisch bestimmen zu können; from tissue; host or cells: Erythrocytes in whole blood from ear arteries of cholesterol-fed White New Zealand rabbits (Ivanovas)
T1 sequence (P23791 whole entry): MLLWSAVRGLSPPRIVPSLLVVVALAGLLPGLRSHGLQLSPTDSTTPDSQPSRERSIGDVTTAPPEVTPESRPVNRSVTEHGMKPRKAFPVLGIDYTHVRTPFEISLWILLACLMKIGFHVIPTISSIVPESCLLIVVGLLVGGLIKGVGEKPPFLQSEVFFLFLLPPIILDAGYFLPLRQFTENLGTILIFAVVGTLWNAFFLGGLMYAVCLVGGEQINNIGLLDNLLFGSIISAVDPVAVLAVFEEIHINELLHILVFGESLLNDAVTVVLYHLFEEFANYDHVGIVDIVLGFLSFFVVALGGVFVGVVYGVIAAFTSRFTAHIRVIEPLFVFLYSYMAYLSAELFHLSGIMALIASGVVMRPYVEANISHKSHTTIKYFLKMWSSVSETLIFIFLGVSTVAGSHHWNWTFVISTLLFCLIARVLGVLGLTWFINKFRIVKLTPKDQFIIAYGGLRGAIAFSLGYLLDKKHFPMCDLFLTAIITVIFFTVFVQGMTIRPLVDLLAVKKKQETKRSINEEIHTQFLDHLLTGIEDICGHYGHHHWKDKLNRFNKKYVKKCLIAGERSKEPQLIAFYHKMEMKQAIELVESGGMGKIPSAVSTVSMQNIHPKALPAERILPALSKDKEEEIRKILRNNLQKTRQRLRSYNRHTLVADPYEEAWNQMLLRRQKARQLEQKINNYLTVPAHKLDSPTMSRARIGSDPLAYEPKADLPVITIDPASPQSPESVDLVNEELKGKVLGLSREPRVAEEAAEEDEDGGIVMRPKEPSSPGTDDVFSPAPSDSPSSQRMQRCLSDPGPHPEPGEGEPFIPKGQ
The experiment is described as follows: Inhibition of the Na+/H+ exchanger of rabbit erythrocytes (amiloride-sensitive Na+ influx, flame photometry). The format is cell-based, Kaninchen. The following applies: Kaninchenerythrocyten; hyperosmolar salt-sucrose medium, pH 7,4, 37°C; rabbits on 2% cholesterol diet; read-out: IC₅₀. The source says:
Inhibition des Na⁺/H⁺-Exchangers von Kaninchenerythrocyten
Weiße Neuseeland-Kaninchen (Ivanovas) erhielten eine Standard-Diät mit 2% Cholesterin für sechs Wochen, um den Na⁺/H⁺-Austausch zu aktivieren und so den Na⁺-Influx in die Erythrocyten via Na⁺/H⁺-Austausch flammenphotometrisch bestimmen zu können. Das Blut wurde den Ohrarterien entnommen und durch 25 IE Kalium-Heparin ungerinnbar gemacht. Ein Teil jeder Probe wurde zur Doppelbestimmung des Hämatokrits durch Zentrifugieren benutzt. Aliquots von jeweils 100 µl dienten zur Messung des Na⁺-Ausgangsgehalts der Erythrocyten.
Um den Amilorid-sensitiven Natrium-Influx zu bestimmen, wurden 100 µl jeder Blutprobe in jeweils 5 ml eines hyperosmolaren Salz-Sucrose-Mediums (mmol/l: 140 NaCl, 3 KCl, 150 Sucrose, 0,1 Ouabain, 20 Tris-hydroxymethylaminomethan) bei pH 7,4 und 37°C inkubiert. Die Erythrocyten wurden danach dreimal mit eiskalter MgCl₂-Ouabain-Lösung (mmol/l: 112 MgCl₂, 0,1 Ouabain) gewaschen und in 2,0 ml destilliertem Wasser hämolysiert. Der intrazelluläre Natriumgehalt wurde flammenphotometrisch bestimmt.
Der Na⁺ -Nettoinflux wurde aus der Differenz zwischen Natrium-Ausgangswerten und dem Natriumgehalt der Erythrocyten nach Inkubation errechnet. Der Amilorid-hemmbare Natrium-Influx ergab sich aus der Differenz des Natriumgehalts der Erythrocyten nach Inkubation mit und ohne Amilorid 3 x 10⁻⁴ mol/l. Auf diese Weise wurde auch bei den erfindungsgemäßen Verbindungen verfahren.
In the case of `CCn1c(C(=O)N=C(N)N)cc2cc(Cl)ccc21` [Beispiel 52, 5-Chlor-1-ethyl-2-indolylcarbonyl-guanidin-hydrochlorid], the IC50 worked out at 0.04 µM.

`CCCn1c(C(=O)N=C(N)N)cc2cc(Cl)ccc21` [Beispiel 53, 5-Chlor-1-propyl-2-indolylcarbonyl-guanidin-hydrochlorid]: the IC50 amounted to 0.05 µM. As to `CCCCn1c(C(=O)N=C(N)N)cc2cc(Cl)ccc21` [Beispiel 54, 5-Chlor-1-butyl-2-indolylcarbonyl-guanidin-hydrochlorid], the IC50 is 0.2 µM.

In the case of `NC(N)=NC(=O)c1cc2cc(Cl)ccc2n1Cc1ccncc1` [Beispiel 61, 5-Chlor-1-(4-picolyl)-2-indolylcarbonyl-guanidin-dihydrochlorid], the IC50 was found to be 0.3 µM.

For `Cn1c(C(=O)N=C(N)N)c(Cl)c2cc(Cl)ccc21` [Beispiel 69, 3,5-Dichlor-1-methyl-2-indolylcarbonyl-guanidin-hydrochlorid], the IC50 was determined as 0.05 µM. For `Cn1c(C(=O)N=C(N)N)c(Cl)c2cc(F)ccc21` [Beispiel 86, 3-Chlor-5-fluor-1-methylindolyl-2-carbonsäureguanidid Hydrochlorid], the IC50 amounted to 0.03 µM. The same measure, in the same setting: then `CN1c2ccccc2CC1C(=O)N=C(N)N` (stereo not shown) [Beispiel 104, 1-Methylindolin-2-carbonsäure-guanidid-hydrochlorid], with 0.2 µM; and `CN1c2ccc(F)cc2CC1C(=O)N=C(N)N` (stereo not shown) [Beispiel 106, 5-Fluor-1-methylindolin-2-carbonsäureguanidid Hydrochlorid], with 0.05 µM.
